Test results reported in paper PMC7076358, “Absorption and Intestinal Metabolic Profile of Oleocanthal in Rats” (Pharmaceutics, 2020).
Like-named read-outs stand apart in the source and are kept apart here.

What was measured:
[1] = design: method as in PMID 11110859; settings: rat intestine perfused, cited from earlier work
[2] = in situ single-pass intestinal perfusion with simultaneous luminal perfusate and mesenteric blood sampling; assay type: in vivo, Sprague–Dawley rats
Experimental: LEV was assayed at 3 mg/mL, according to its high dose strength, in 250 mL TM.
Single-pass intestinal perfusion was performed in anesthetized rats according to the method described by Brouwers et al. [15], with simultaneous sampling from the luminal perfusate and mesenteric blood.
Anaesthesia was induced by intraperitoneal injection of pentobarbital sodium (60 mg/kg BW). The rats were then placed on a homeothermic blanket to maintain the body temperature at 37 °C. First, under general anaesthesia, the left jugular vein was cannulated with a heparinised (50 IU/mL) 0.5 × 0.9 mm/20 G catheter (Cavafix® MT, Braun Medical S.A., Barcelona, Spain) for infusion of donor blood. Second, a midline abdominal incision was made to isolate approximately 10 cm of the ileum using the ileocecal junction as a point of reference. Two glass cannulas (o.d. 4 mm, i.d. 3 mm, Duran®, Vidrafoc, Barcelona, Spain) were inserted at the proximal and distal ends of the isolated segment. The segment was rinsed by injection TM to remove the content until the solution came out clear. Next, the inlet cannula was connected to polyethylene tubing (i.d. 3 mm), which aspirated the tested solution (OLC or LEV) using a peristaltic pump (Minipuls3, M312 model, Gilson, Le Bel, France). Finally, the mesenteric vein draining blood from the intestinal segment was cannulated by inserting approximately 1 cm of a catheter (BD Insyte-W 24GA 0.7 × 19 mm, Becton Dickinson, Sangüesa S.A., Cornellà de Llobregat, Spain). The cannula was secured with a knot and connected to a silicone tube (i.d. 0.64 mm; o.d. 1.19 mm, Freudenberg Medical Europe, VWR International Eurolab S.L., Llinars del Vallés, Spain) that allowed blood to flow into the heparinised tubes. Care was taken to handle the small intestine gently to maintain normal blood supply. […]
The experiments were carried out in a laboratory room with infrared light to avoid oxidation of OLC. […] At the end of the experiment, the animal was euthanised by injection of air into the jugular, and the length of the intestinal segment was measured. […]

[3] = source not stated; cited from earlier work
[4] = tested on: Caco-2 cell monolayers; design: method as in PMID 10745093; settings: differentiated Caco-2 cell monolayers; cited from earlier work
[5] = design: method as in PMID 15760043, PMID 9068926; settings: cited from earlier work

Question: With `C/C=C1/[C@H](O[C@@H]2O[C@H](CO)[C@@H](O)[C@H](O)[C@H]2O)OC=C(C(=O)OC)[C@H]1CC(=O)OCCc1ccc(O)c(O)c1` [oleuropein] as the compound, how does the intestinal permeability coefficient ([1]; hypotonic conditions) read?
Answer: The intestinal permeability coefficient was 5.92 ×10⁻⁶ cm/s.

Question: And the intestinal permeability coefficient ([1]; iso-osmotic conditions)?
Answer: The intestinal permeability coefficient was 1.47 ×10⁻⁶ cm/s.

Question: With `C/C=C(/C=O)[C@@H](CC=O)CC(=O)OCCc1ccc(O)cc1` [OLC, oleocanthal] as the compound, how does the Peff at 60 min ([2]; Sprague-Dawley, pH 7, rat ileum, disappearance from lumen, OLC 0.1 mg/mL, LEV 3 mg/mL, flow 1 mL/min, mean ± SD, n = 4, normalised to 10-cm segment, read-out: Peff (effective permeability coefficient)) read?
Answer: Its Peff at 60 min is 22.3 ± 31.6 ×10⁻⁶ cm/s.

Question: And the Papp at 60 min ([2]; Sprague-Dawley, rat, pH 7, rat ileum, appearance in mesenteric blood, OLC 0.1 mg/mL, LEV 3 mg/mL, mean ± SD, n = 4, normalised to 10-cm segment, read-out: Papp (apparent permeability coefficient))?
Answer: The Papp at 60 min was 4.12 ± 2.33 ×10⁻⁶ cm/s.

Question: What about the absorption ([2]; rat in situ intestinal perfusion, stated in conclusions) of the same compound?
Answer: The absorption was 16%.

Question: And the logP [3]?
Answer: The logP was 1.15.

Question: Which permeability [4] does the source give for `OCCc1ccc(O)c(O)c1` [hydroxytyrosol] here?
Answer: Its permeability is 12.4 ± 0.9 × 10^−6 cm/s.

Question: Which oral bioavailability [5] does the source give for `C[C@H]1COc2c(N3CCN(C)CC3)c(F)cc3c(=O)c(C(=O)O)cn1c23` [LEV, levofloxacin] here?
Answer: The oral bioavailability was roughly 100%.
